In patent US12649722B2, “Herbicidal cinnoline derivatives” (SYNGENTA CROP PROTECTION AG, priority 2020, dated 2026):

Columns and labels:
Assay type in all cases: in vivo
ZEAMX [1] = assay: Post-emergence Test, ZEAMX; details: sprayed after 8 days cultivation, 1000 g/ha, evaluated after 13 days
Experimental: [The procedure below names another target; the source lists this target under the same test.] (§1) Seeds of a variety of test species are sown in standard soil in pots (Amaranthus retoflexus (AMARE), Solarium nigrum (SOLNI), Setaria faberi (SETFA), Lolium perenne (LOLPE), Echinochloa crus-galli (ECHCG), Ipornoea hederacea (IPOHE)). After 8 days cultivation under controlled conditions in a glasshouse (at 24° C./16° C., day/night; 14 hours light; 65% humidity), the plants are sprayed with an aqueous spray solution derived from the formulation of the technical active ingredient in acetone/water (50:50) solution containing 0.5% Tween 20 (polyoxyethylene sorbitan monolaurate, CAS RN 9005-64-5). Compounds are applied at 1000 g/ha unless otherwise stated. The test plants are then grown in a glasshouse under controlled conditions in a glasshouse (at 24° C./16° C., day/night; 14 hours light; 65% humidity) and watered twice daily. After 13 days the test is evaluated for the percentage damage caused to the plant. The biological activities are shown in the following table on a five-point scale (5=81-100%; 4=61-80%; 3=41-60%; 2=21-40%; 1=10-20%; 0=0%; −=not tested).

Setaria faberi (SETFA) [2] = assay: Post-emergence Test, SETFA; details: sprayed after 8 days cultivation, 1000 g/ha, evaluated after 13 days
Experimental: as §1

Setaria faberi (SETFA) [3] = assay: Pre-emergence Test, SETFA; details: 1000 g/ha, evaluated after 13 days
[4] = test system: Echinochloa crus-galli (ECHCG); assay: Post-emergence Test, ECHCG; details: sprayed after 8 days cultivation, 1000 g/ha, evaluated after 13 days
Experimental: as §1

[5] = test system: Ipornoea hederacea (IPOHE); assay: Post-emergence Test, IPOHE; details: sprayed after 8 days cultivation, 1000 g/ha, evaluated after 13 days
Experimental: as §1

ABUTH [6] = assay: Pre-emergence Test, ABUTH; details: 1000 g/ha, evaluated after 13 days
[7] = test system: Amaranthus retoflexus (AMARE); assay: Post-emergence Test, AMARE; details: sprayed after 8 days cultivation, 1000 g/ha, evaluated after 13 days
Experimental: as §1

[8] = test system: Ipornoea hederacea (IPOHE); assay: Pre-emergence Test, IPOHE; details: 1000 g/ha, evaluated after 13 days
ABUTH [9] = assay: Post-emergence Test, ABUTH; details: sprayed after 8 days cultivation, 1000 g/ha, evaluated after 13 days
Experimental: [The procedure below names another target; the source lists this target under the same test.] as §1

ZEAMX [10] = assay: Pre-emergence Test, ZEAMX; details: 1000 g/ha, evaluated after 13 days
[11] = test system: Echinochloa crus-galli (ECHCG); assay: Pre-emergence Test, ECHCG; details: 1000 g/ha, evaluated after 13 days
[12] = test system: Amaranthus retoflexus (AMARE); assay: Pre-emergence Test, AMARE; details: 1000 g/ha, evaluated after 13 days

C=Cc1cccc2c1c(=O)c(C(=O)O)nn2-c1ccc(OC(F)(F)F)cc1 [Compound P17, 4-oxo-1-[4-(trifluoromethoxy)phenyl]-5-vinyl-cinnoline-3-carboxylic acid]
0 (0=0%): percentage damage caused to the plant, IPOHE [5] | percentage damage caused to the plant, IPOHE [8]
2 (2=21-40%): percentage damage caused to the plant, AMARE [7] | percentage damage caused to the plant, ECHCG [11] | percentage damage caused to the plant, AMARE [12]
1 (1=10-20%): percentage damage caused to the plant, ZEAMX (ZEAMX [1]) | percentage damage caused to the plant, ABUTH (ABUTH [6]) | percentage damage caused to the plant, ABUTH (ABUTH [9]) | percentage damage caused to the plant, ZEAMX (ZEAMX [10])
3 (3=41-60%): percentage damage caused to the plant, SETFA (Setaria faberi (SETFA) [2]) | percentage damage caused to the plant, SETFA (Setaria faberi (SETFA) [3]) | percentage damage caused to the plant, ECHCG [4]

C/C(=N\O)c1cccc2c1c(=O)c(C(=O)O)nn2-c1ccc(OC(F)(F)F)cc1 [Compound P15, 5-[(E)-N-hydroxy-C-methyl-carbonimidoyl]-4-oxo-1-[4-(trifluoromethoxy)phenyl] cinnoline-3-carboxylic acid]
1 (1=10-20%): percentage damage caused to the plant, AMARE [7]
0 (0=0%): percentage damage caused to the plant, IPOHE [8]
4 (4=61-80%): percentage damage caused to the plant, ECHCG [4] | percentage damage caused to the plant, ECHCG [11]
5 (5=81-100%): percentage damage caused to the plant, SETFA (Setaria faberi (SETFA) [3])
2 (2=21-40%): percentage damage caused to the plant, ABUTH (ABUTH [6]) | percentage damage caused to the plant, AMARE [12]
3 (3=41-60%): percentage damage caused to the plant, ZEAMX (ZEAMX [1]) | percentage damage caused to the plant, SETFA (Setaria faberi (SETFA) [2]) | percentage damage caused to the plant, IPOHE [5] | percentage damage caused to the plant, ABUTH (ABUTH [9]) | percentage damage caused to the plant, ZEAMX (ZEAMX [10])

O=C(O)c1nn(-c2ccc(OC(F)(F)F)cc2)c2cccc(-c3cc(C(F)F)on3)c2c1=O [Compound P13, 5-[5-(difluoromethyl)isoxazol-3-yl]-4-oxo-1-[4-(trifluoromethoxy)phenyl] cinnoline-3-carboxylic acid]
1 (1=10-20%): percentage damage caused to the plant, AMARE [7]
3 (3=41-60%): percentage damage caused to the plant, ZEAMX (ZEAMX [1]) | percentage damage caused to the plant, ECHCG [4]
2 (2=21-40%): percentage damage caused to the plant, IPOHE [5]
0 (0=0%): percentage damage caused to the plant, SETFA (Setaria faberi (SETFA) [3]) | percentage damage caused to the plant, ABUTH (ABUTH [6]) | percentage damage caused to the plant, IPOHE [8] | percentage damage caused to the plant, ABUTH (ABUTH [9]) | percentage damage caused to the plant, ZEAMX (ZEAMX [10]) | percentage damage caused to the plant, ECHCG [11] | percentage damage caused to the plant, AMARE [12]
4 (4=61-80%): percentage damage caused to the plant, SETFA (Setaria faberi (SETFA) [2])

CCOC(=O)c1nn(-c2ccc(OC(F)(F)F)cc2)c2cccc(N3CCCCC3)c2c1=O [Compound P27, ethyl 4-oxo-5-(1-piperidyl)-1-[4-(trifluoromethoxy)phenyl] cinnoline-3-carboxylate]
0 (0=0%): percentage damage caused to the plant, ZEAMX (ZEAMX [1]) | percentage damage caused to the plant, SETFA (Setaria faberi (SETFA) [2]) | percentage damage caused to the plant, SETFA (Setaria faberi (SETFA) [3]) | percentage damage caused to the plant, ECHCG [4] | percentage damage caused to the plant, IPOHE [5] | percentage damage caused to the plant, ABUTH (ABUTH [6]) | percentage damage caused to the plant, AMARE [7] | percentage damage caused to the plant, IPOHE [8] | percentage damage caused to the plant, ABUTH (ABUTH [9]) | percentage damage caused to the plant, ZEAMX (ZEAMX [10]) | percentage damage caused to the plant, ECHCG [11] | percentage damage caused to the plant, AMARE [12]

CCOC(=O)c1nn(-c2ccc(OC(F)(F)F)cc2)c2cccc(N3CCCC3)c2c1=O [Compound P28, ethyl 4-oxo-5-pyrrolidin-1-yl-1-[4-(trifluoromethoxy)phenyl] cinnoline-3-carboxylate]
0 (0=0%): percentage damage caused to the plant, ZEAMX (ZEAMX [1]) | percentage damage caused to the plant, SETFA (Setaria faberi (SETFA) [2]) | percentage damage caused to the plant, SETFA (Setaria faberi (SETFA) [3]) | percentage damage caused to the plant, ECHCG [4] | percentage damage caused to the plant, IPOHE [5] | percentage damage caused to the plant, ABUTH (ABUTH [6]) | percentage damage caused to the plant, AMARE [7] | percentage damage caused to the plant, IPOHE [8] | percentage damage caused to the plant, ABUTH (ABUTH [9]) | percentage damage caused to the plant, ZEAMX (ZEAMX [10]) | percentage damage caused to the plant, ECHCG [11] | percentage damage caused to the plant, AMARE [12]

O=C(O)c1nn(-c2ccc(OC(F)(F)F)cc2)c2cccc(-n3cc(C(F)(F)F)cn3)c2c1=O [Compound P22, 4-oxo-1-[4-(trifluoromethoxy)phenyl]-5-[4-(trifluoromethyl)pyrazol-1-yl]cinnoline-3-carboxylic acid]
1 (1=10-20%): percentage damage caused to the plant, IPOHE [5] | percentage damage caused to the plant, ABUTH (ABUTH [9])
0 (0=0%): percentage damage caused to the plant, SETFA (Setaria faberi (SETFA) [3]) | percentage damage caused to the plant, ECHCG [4] | percentage damage caused to the plant, ABUTH (ABUTH [6]) | percentage damage caused to the plant, IPOHE [8] | percentage damage caused to the plant, ZEAMX (ZEAMX [10]) | percentage damage caused to the plant, ECHCG [11]
2 (2=21-40%): percentage damage caused to the plant, ZEAMX (ZEAMX [1]) | percentage damage caused to the plant, SETFA (Setaria faberi (SETFA) [2]) | percentage damage caused to the plant, AMARE [12]
4 (4=61-80%): percentage damage caused to the plant, AMARE [7]

CCOC(=O)c1nn(-c2ccc(OC(F)(F)F)cc2)c2cccc(C(F)F)c2c1=O [Compound P36, ethyl 5-(difluoromethyl)-4-oxo-1-[4-(trifluoromethoxy)phenyl] cinnoline-3-carboxylate]
1 (1=10-20%): percentage damage caused to the plant, SETFA (Setaria faberi (SETFA) [2]) | percentage damage caused to the plant, ABUTH (ABUTH [6]) | percentage damage caused to the plant, IPOHE [8]
0 (0=0%): percentage damage caused to the plant, ZEAMX (ZEAMX [1]) | percentage damage caused to the plant, ECHCG [4] | percentage damage caused to the plant, IPOHE [5] | percentage damage caused to the plant, AMARE [7] | percentage damage caused to the plant, ABUTH (ABUTH [9]) | percentage damage caused to the plant, ZEAMX (ZEAMX [10]) | percentage damage caused to the plant, ECHCG [11] | percentage damage caused to the plant, AMARE [12]
2 (2=21-40%): percentage damage caused to the plant, SETFA (Setaria faberi (SETFA) [3])

CCOC(=O)c1nn(-c2ccc(OC(F)(F)F)cc2)c2cccc(CC=O)c2c1=O [Compound P18, ethyl 4-oxo-5-(2-oxoethyl)-1-[4-(trifluoromethoxy)phenyl] cinnoline-3-carboxylate]
1 (1=10-20%): percentage damage caused to the plant, ZEAMX (ZEAMX [1]) | percentage damage caused to the plant, SETFA (Setaria faberi (SETFA) [2]) | percentage damage caused to the plant, SETFA (Setaria faberi (SETFA) [3]) | percentage damage caused to the plant, ECHCG [4] | percentage damage caused to the plant, IPOHE [5] | percentage damage caused to the plant, ABUTH (ABUTH [9])
0 (0=0%): percentage damage caused to the plant, ABUTH (ABUTH [6]) | percentage damage caused to the plant, AMARE [7] | percentage damage caused to the plant, IPOHE [8] | percentage damage caused to the plant, ZEAMX (ZEAMX [10]) | percentage damage caused to the plant, ECHCG [11] | percentage damage caused to the plant, AMARE [12]
